Assay results reported in ChEMBL document CHEMBL4387741, “Optimization of novel reversible Bruton's tyrosine kinase inhibitors identified using Tethering-fragment-based screens” (Bioorg Med Chem, 2019).

Experiments:
[1] = biological target: Serine/threonine-protein kinase WNK3 (Homo sapiens) (UniProt Q9BYP7); assay: Inhibition of wild-type human partial length WNK3 (M1 to D434 residues) expressed in mammalian expression system at 1 uM by Kinomescan method relative to control
[2] = biological target: Serine/threonine-protein kinase 25 (Homo sapiens) (UniProt O00506); assay: Inhibition of wild-type human partial length YSK1 (V14 to H295 residues) expressed in bacterial expression system at 1 uM by Kinomescan method relative to control
Serine/threonine-protein kinase 25 (Homo sapiens), sequence (O00506 whole entry, looked up, the tested form may be a part): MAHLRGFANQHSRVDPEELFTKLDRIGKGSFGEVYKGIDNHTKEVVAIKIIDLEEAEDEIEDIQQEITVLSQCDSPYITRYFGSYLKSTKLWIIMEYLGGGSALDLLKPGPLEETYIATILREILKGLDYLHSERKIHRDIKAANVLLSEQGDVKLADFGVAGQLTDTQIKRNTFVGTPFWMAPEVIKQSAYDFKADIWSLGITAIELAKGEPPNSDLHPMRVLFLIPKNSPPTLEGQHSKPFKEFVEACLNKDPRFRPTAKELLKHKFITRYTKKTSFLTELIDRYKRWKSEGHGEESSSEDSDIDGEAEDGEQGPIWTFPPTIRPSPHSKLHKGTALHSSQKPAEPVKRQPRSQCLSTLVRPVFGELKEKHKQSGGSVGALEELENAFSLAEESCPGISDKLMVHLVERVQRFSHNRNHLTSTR

[3] = test system: ALK tyrosine kinase receptor (Homo sapiens), Q9UM73 [C1156Y]; assay: Inhibition of wild-type human partial length ALK C1156Y mutant (I1088 to E1409 residues) expressed in mammalian expression system at 1 uM by Kinomescan method relative to control
[4] = biological target: Serine/threonine-protein kinase Nek11 (Homo sapiens) (UniProt Q8NG66); assay: Inhibition of wild-type human partial length NEK11 (M1 to E313 residues) expressed in mammalian expression system at 1 uM by Kinomescan method relative to control
Serine/threonine-protein kinase Nek11 (Homo sapiens), sequence (Q8NG66 whole entry, the tested form may be a part): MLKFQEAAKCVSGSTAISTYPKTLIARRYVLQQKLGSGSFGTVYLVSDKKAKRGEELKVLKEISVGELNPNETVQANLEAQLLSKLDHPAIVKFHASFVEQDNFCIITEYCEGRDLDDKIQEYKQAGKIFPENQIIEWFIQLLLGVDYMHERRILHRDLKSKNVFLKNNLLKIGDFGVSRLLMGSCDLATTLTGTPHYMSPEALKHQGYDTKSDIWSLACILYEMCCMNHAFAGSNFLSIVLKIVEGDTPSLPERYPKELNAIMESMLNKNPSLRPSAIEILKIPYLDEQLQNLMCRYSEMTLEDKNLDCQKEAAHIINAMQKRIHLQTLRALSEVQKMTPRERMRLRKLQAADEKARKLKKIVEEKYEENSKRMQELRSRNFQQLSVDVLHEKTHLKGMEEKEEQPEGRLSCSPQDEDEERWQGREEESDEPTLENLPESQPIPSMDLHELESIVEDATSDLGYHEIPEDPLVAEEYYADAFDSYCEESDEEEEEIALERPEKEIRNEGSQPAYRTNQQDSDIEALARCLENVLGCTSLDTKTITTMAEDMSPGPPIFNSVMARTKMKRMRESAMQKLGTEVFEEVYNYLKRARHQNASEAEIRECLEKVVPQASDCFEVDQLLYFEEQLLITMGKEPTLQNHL

[5] = biological target: cAMP-dependent protein kinase catalytic subunit beta (Homo sapiens) (UniProt P22694); assay: Inhibition of wild-type human full length PKAC-beta (M1 to F351 residues) expressed in bacterial expression system at 10 uM by Kinomescan method relative to control
[6] = biological target: Hormonally up-regulated neu tumor-associated kinase (Homo sapiens) (UniProt P57058); assay: Inhibition of wild-type human partial length HUNK (A31 to K354 residues) expressed in bacterial expression system at 10 uM by Kinomescan method relative to control
[7] = biological target: Non-receptor tyrosine-protein kinase TYK2 (Homo sapiens) (UniProt P29597); assay: Inhibition of wild-type human partial length TYK2 JH2 pseudokinase domain (G556 to D888 residues) expressed in mammalian expression system at 10 uM by Kinomescan method relative to control
[8] = biological target: Platelet-derived growth factor receptor beta (Homo sapiens) (UniProt P09619); assay: Inhibition of wild-type human partial length PDGFRB (V582 to Y1009 residues) expressed in bacterial expression system at 10 uM by Kinomescan method relative to control
[9] = biological target: Serine/threonine-protein kinase SIK3 (Homo sapiens) (UniProt Q9Y2K2); assay: Inhibition of wild-type human partial length QSK (A90 to L395 residues) expressed in mammalian expression system at 10 uM by Kinomescan method relative to control
Serine/threonine-protein kinase SIK3 (Homo sapiens), sequence (Q9Y2K2 whole entry, looked up, the tested form may be a part): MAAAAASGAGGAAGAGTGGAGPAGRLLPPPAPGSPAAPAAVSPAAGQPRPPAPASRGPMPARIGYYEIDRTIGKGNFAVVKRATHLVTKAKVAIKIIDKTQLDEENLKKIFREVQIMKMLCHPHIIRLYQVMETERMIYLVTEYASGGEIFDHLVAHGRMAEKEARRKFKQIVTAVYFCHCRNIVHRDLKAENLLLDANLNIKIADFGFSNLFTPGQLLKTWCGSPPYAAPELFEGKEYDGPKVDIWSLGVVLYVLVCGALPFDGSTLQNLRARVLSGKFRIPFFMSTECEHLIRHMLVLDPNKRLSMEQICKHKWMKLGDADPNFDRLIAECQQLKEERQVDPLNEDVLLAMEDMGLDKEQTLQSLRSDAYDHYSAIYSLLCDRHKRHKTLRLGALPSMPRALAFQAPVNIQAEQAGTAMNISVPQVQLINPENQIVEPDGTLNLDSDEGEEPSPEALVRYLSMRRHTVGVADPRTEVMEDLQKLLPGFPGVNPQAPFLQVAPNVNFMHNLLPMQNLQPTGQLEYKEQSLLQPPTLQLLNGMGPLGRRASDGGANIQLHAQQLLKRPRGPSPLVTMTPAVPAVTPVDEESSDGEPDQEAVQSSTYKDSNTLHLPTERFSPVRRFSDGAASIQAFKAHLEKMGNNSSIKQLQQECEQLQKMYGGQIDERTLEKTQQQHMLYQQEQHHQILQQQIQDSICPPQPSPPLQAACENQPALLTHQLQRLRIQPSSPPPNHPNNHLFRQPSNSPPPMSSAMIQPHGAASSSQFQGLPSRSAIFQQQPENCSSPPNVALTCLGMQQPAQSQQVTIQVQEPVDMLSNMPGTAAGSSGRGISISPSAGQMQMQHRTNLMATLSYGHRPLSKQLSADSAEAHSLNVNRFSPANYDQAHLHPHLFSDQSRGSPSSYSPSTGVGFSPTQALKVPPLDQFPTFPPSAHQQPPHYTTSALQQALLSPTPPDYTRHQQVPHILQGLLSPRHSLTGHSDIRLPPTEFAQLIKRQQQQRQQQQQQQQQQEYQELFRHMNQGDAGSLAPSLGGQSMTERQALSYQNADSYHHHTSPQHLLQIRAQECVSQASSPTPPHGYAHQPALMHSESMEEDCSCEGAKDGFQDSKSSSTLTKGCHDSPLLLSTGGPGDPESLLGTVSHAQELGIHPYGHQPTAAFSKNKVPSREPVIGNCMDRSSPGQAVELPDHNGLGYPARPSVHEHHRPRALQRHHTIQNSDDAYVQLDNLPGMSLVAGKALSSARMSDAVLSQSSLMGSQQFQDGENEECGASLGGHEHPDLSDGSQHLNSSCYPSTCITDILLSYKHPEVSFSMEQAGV

[10] = biological target: Beta-adrenergic receptor kinase 1 (Homo sapiens) (UniProt P25098); assay: Inhibition of wild-type human full length GRK2 (M1 to L689 residues) expressed in mammalian expression system at 10 uM by Kinomescan method relative to control
Beta-adrenergic receptor kinase 1 (Homo sapiens), sequence (P25098 whole entry, the tested form may be a part): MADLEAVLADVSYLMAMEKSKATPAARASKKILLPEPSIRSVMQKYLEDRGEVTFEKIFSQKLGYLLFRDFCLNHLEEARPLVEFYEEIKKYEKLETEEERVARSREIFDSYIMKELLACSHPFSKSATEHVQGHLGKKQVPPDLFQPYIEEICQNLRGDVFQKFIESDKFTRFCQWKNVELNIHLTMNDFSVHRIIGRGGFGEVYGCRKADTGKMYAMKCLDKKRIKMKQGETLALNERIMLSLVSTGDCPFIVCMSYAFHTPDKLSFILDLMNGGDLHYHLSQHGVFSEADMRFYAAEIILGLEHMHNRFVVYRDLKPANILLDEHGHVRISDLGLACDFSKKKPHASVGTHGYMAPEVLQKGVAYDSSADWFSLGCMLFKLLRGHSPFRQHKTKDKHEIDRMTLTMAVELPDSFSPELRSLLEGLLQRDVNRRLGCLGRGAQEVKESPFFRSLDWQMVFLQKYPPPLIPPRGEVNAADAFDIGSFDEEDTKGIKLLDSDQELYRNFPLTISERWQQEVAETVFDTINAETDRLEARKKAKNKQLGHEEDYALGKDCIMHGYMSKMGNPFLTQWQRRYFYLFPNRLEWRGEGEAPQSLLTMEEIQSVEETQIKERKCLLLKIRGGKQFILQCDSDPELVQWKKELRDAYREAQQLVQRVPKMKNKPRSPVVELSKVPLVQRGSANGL

[11] = test system: Hepatocyte growth factor receptor (Homo sapiens), P08581 [M1250T]; assay: Inhibition of human partial length MET M1250T mutant (D1010 to S1367 residues) expressed in bacterial expression system at 10 uM by Kinomescan method relative to control
Hepatocyte growth factor receptor (Homo sapiens), P08581 [M1250T], sequence (P08581 whole entry M1250T, the tested form may be a part): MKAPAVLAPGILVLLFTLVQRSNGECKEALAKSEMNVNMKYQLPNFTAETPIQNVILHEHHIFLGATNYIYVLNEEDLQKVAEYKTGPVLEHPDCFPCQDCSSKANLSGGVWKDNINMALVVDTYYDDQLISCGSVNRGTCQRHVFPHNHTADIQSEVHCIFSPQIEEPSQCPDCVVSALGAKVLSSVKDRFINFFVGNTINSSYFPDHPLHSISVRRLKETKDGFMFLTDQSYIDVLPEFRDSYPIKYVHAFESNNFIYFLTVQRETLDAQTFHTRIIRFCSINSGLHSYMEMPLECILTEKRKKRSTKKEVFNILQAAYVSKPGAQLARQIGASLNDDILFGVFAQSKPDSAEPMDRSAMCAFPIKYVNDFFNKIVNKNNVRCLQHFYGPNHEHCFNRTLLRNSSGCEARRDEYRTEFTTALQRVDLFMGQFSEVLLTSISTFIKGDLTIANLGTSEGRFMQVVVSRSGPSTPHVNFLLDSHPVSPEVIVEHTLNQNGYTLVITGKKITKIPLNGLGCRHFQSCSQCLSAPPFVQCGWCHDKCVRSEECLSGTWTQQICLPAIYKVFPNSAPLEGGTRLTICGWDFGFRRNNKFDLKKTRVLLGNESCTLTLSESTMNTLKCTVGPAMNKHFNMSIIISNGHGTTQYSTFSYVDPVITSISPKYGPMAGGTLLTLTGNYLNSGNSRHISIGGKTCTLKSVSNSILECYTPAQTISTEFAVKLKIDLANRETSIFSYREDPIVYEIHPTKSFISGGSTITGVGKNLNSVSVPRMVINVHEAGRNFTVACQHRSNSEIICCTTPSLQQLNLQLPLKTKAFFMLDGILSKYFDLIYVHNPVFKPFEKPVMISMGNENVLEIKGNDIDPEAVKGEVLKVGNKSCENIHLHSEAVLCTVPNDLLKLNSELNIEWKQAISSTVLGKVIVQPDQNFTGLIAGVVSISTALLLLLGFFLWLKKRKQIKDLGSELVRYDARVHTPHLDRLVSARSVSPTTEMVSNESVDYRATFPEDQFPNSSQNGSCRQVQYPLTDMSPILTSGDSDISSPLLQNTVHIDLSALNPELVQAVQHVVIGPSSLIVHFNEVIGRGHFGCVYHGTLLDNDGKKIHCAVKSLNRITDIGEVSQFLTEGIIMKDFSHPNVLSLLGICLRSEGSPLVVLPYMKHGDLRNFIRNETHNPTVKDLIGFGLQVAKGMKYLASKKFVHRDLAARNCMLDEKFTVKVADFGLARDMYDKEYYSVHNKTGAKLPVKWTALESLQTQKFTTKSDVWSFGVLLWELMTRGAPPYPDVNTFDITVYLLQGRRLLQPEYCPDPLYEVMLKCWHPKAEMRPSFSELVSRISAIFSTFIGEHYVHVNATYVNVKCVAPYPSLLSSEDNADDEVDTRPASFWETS

[12] = biological target: Cyclin-dependent kinase 11B (Homo sapiens) (UniProt P21127); assay: Inhibition of wild-type human partial length CDC2L1 (P353 to G692 residues) expressed in bacterial expression system at 10 uM by Kinomescan method relative to control
[13] = biological target: Maternal embryonic leucine zipper kinase (Homo sapiens) (UniProt Q14680); assay: Inhibition of wild-type human full length MELK (M1 to V651 residues) expressed in bacterial expression system at 10 uM by Kinomescan method relative to control

Question: `O=C(Nc1cccc([C@@H]2CN(c3ncnc4[nH]ccc34)CCN2CCO)c1)Nc1c(F)cccc1N1CCCC1` was tested. Which inhibition [1] did it give?
Answer: 61%

Question: And the inhibition [2]?
Answer: 91%

Question: And the inhibition [3]?
Answer: 70%

Question: And the inhibition [4]?
Answer: 86%

Question: Which inhibition [5] does the source give for `O=C(Nc1cccc([C@H]2CCCN(c3ncnc4[nH]ccc34)C2)c1)Nc1ccccc1N1CCCC1` here?
Answer: 100%

Question: What about the inhibition [6] of the same compound?
Answer: 100%

Question: And the inhibition [7]?
Answer: 50%

Question: What about the inhibition [8] of the same compound?
Answer: 0.1%

Question: What about the inhibition [9] of the same compound?
Answer: 88%

Question: And the inhibition [10]?
Answer: 98%

Question: And the inhibition [11]?
Answer: 97%

Question: What about the inhibition [12] of the same compound?
Answer: 58%

Question: What about the inhibition [13] of the same compound?
Answer: 36%
